Measurements: patent US8093281B2, “Indazoles as glucocorticoid receptor ligands” (Glaxo Group Limited, priority 2005, dated 2012)

What was measured:
Progesterone Receptor = target: T1, Progesterone Receptor (Homo sapiens, UniProt P06401); assay: Assay for progesterone receptor activity (CV-1 cells transduced with PRb-BacMam and MMTV-BacMam); assay type: cell-based; conditions: 24 h, read-out: pEC50, progesterone receptor activity (converted)
T1 construct: expressed in transfected cells; host or cells: CV-1 cells transduced with PRb-BacMam and MMTV-BacMam (luciferase reporter)
T1 sequence (P06401 1-933): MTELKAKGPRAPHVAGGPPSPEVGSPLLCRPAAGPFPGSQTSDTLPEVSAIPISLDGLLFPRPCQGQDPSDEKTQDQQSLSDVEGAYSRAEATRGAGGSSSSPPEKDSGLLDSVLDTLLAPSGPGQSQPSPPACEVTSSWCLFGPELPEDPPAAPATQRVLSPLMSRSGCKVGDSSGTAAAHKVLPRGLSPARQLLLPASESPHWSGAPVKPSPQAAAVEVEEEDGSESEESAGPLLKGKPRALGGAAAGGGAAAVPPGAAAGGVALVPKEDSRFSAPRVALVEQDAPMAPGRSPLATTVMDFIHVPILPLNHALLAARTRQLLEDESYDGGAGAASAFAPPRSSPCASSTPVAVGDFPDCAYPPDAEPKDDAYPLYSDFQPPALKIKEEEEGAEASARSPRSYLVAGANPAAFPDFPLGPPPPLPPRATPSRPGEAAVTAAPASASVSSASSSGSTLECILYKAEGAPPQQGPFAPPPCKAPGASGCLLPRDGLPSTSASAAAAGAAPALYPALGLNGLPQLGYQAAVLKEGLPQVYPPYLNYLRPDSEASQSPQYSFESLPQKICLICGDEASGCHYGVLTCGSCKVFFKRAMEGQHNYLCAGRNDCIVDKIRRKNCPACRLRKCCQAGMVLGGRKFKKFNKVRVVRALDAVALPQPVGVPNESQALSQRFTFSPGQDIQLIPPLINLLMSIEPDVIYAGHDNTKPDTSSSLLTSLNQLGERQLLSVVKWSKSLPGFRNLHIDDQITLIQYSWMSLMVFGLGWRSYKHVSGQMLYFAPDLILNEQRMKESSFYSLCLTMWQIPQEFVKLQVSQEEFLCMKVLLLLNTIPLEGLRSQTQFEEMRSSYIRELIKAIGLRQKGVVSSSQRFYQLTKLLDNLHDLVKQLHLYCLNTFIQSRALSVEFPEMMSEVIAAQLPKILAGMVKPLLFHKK
Method: A T225 flask of CV-1 cells at a density of 80% confluency was washed with PBS, detached from the flask using 0.25% trypsin and counted using a Sysmex KX-21N. Cells were diluted in DMEM containing 10% Hyclone, 2 mM […] and 1% Pen/Strep at 140 cells/μl and transduced with 10% PRb-BacMam and 10% MMTV-BacMam. […] of suspension cells were dispensed to each well of white Nunc 384-well plates, containing compounds at the required concentration. After 24 h 10 μl of Steady Glo were added to each well of the plates. Plates were incubated in the dark for 10 min before reading them on a Viewlux reader. Dose response curves were constructed from which pEC50 values were estimated.

NFkB activity = assay: Glucocorticoid mediated transrepression of NFkB activity (A549 cells, ELAM promoter alkaline phosphatase reporter, TNFα stimulated); assay type: cell-based; conditions: Homo sapiens, A549, 16 h, Human A549 lung epithelial cells, 3 ng/ml human recombinant TNFα, read-out: pEC50, transrepression of NFkB activity (converted)
Excerpt: Human A549 lung epithelial cells were engineered to contain a secreted placental alkaline phosphatase gene under the control of the distal region of the NFkB dependent ELAM promoter as previously described in Ray, K. P., Farrow, S., Daly, M., Talabot, F. and Searle, N. “Induction of the E-selectin promoter by interleukin 1 and tumour necrosis factor alpha, and inhibition by glucocorticoids” Biochemical Journal (1997) 328: 707-15.
Compounds were solvated and diluted in DMSO, and transferred directly into assay plates such that the final concentration of DMSO was 0.7%. Following the addition of cells (40K per well), plates were incubated for 1 hr prior to the addition of 3 ng/ml human recombinant TNFα. Following continued incubation for 16 hr, alkaline phosphatase activity was determined by measuring the change in optical density at 405 nm with time following the addition of 0.7 volumes of assay buffer (1 mg/ml p-nitrophenylphosphate dissolved in 1M diethanolamine, 0.28M NaCl, 0.5 mM MgCl2). Dose response curves were constructed from which EC50 values were estimated.

Row | Structure (SMILES) | EC50 (Progesterone Receptor) [µM] | EC50 (NFkB activity) [µM]
1 | COc1ccc(F)cc1C(C)(C)CC(O)(CNc1cccc2c1cnn2-c1ccc(F)cc1F)C(F)(F)F (single isomer, unassigned) [Example 4-A, 2-({[1-(2,4-Difluorophenyl)-1H-indazol-4-yl]amino}methyl)-1,1′-trifluoro-4-[5-fluoro-2-(methyloxy)phenyl]-4-methyl-2-pentanol] | > 10 | –
2 | COc1ccc(F)cc1C(C)(C)CC(O)(CNc1cc(C)cc2c1cnn2-c1ccc(F)cc1F)C(F)(F)F (single isomer, unassigned) [Example 16-B, 2-({[1-(2,4-Difluorophenyl)-6-methyl-1H-indazol-4-yl]amino}methyl)-1,1,1-trifluoro-4-[5-fluoro-2-(methyloxy)phenyl]-4-methyl-2-pentanol] | > 10 | –
3 | Cc1cc(NCC(O)(CC(C)(C)c2cc(F)ccc2O)C(F)(F)F)c2cnn(-c3cccc(O)c3)c2c1 (single isomer, unassigned) [Example 24-A, 4-Fluoro-2-[4,4,4-trifluoro-3-hydroxy-3-({[1-(3-hydroxyphenyl)-6-methyl-1H-indazol-4-yl]amino}methyl)-1,1-dimethylbutyl]phenol] | > 10 | –
4 | COc1ccc(F)cc1C(C)(C)CC(O)(CNc1cc(C)cc2c1cnn2-c1ccccc1F)C(F)(F)F (single isomer, unassigned) [Example 25-B, 1,1,1-Trifluoro-4-[5-fluoro-2-(methyloxy)phenyl]-2-({[1-(2-fluorophenyl)-6-methyl-1H-indazol-4-yl]amino}methyl)-4-methyl-2-pentanol] | > 10 | –
5 | COc1ccc(F)cc1C(C)(C)CC(O)(CNc1cc(C)cc2c1cnn2-c1ccc(F)cc1)C(F)(F)F (single isomer, unassigned) [Example 26-A, 1,1,1-Trifluoro-4-[5-fluoro-2-(methyloxy)phenyl]-2-({[1-(4-fluorophenyl)-6-methyl-1H-indazol-4-yl]amino}methyl)-4-methyl-2-pentanol] | > 10 | –

The remaining lines, values ahead:

Row | EC50 (Progesterone Receptor) [µM] | EC50 (NFkB activity) [µM] | Structure (SMILES)
6 | > 10 | < 0.00316 | COc1ccc(-n2ncc3c(NCC(O)(CC(C)(C)c4cc(F)ccc4OC)C(F)(F)F)cccc32)cc1 (racemic) [Example 3, 1,1,1-Trifluoro-4-[5-fluoro-2-(methyloxy)phenyl-4-methyl-2-({1-[4-(methyloxy)phenyl]-1H-indazol-4-yl}amino)methyl]-2-pentanol]
7 | > 10 | < 0.00316 | COc1ccc(F)cc1C(C)(C)CC(O)(CNc1cccc2c1cnn2-c1ccncc1)C(F)(F)F (racemic) [Example 5, 1,1,1-Trifluoro-4-[5-fluoro-2-(methyloxy)phenyl]-4-methyl-2-({[1-(4-pyridinyl)-1H-indazol-4-yl]amino}methyl)-2-pentanol]
8 | > 10 | < 0.00316 | COc1ccc(F)cc1C(C)(C)CC(O)(CNc1cccc2c1cnn2-c1ccccc1)C(F)(F)F (racemic) [Example 7, 1,1,1-Trifluoro-4-[5-fluoro-2-(methyloxy)phenyl]-4-methyl-2-{[(1-phenyl-1H-indazol-4-yl)amino]methyl}-2-pentanol]
9 | > 10 | – | COc1ccc(F)cc1C(C)(C)CC(O)(CNc1cccc2c1cnn2-c1ccc(F)cc1)C(F)(F)F (single isomer, unassigned) [Example 2-A, 1,1,1-Trifluoro-4-[5-fluoro-2-(methyloxy)phenyl]-2-({[1-(4-fluorophenyl)-1H-indazol-4-yl]amino}methyl)-4-methyl-2-pentanol]
10 | > 10 | – | CCOC(=O)c1cccc(-n2ncc3c(NCC(O)(CC(C)(C)c4cc(F)ccc4OC)C(F)(F)F)cccc32)c1 (single isomer, unassigned) [Example 6-A, Ethyl 3-(4-{[4-[5-fluoro-2-(methyloxy)phenyl]-2-hydroxy-4-methyl-2-(trifluoromethyl)pentyl]amino}-1H-indazol-1-yl)benzoate]
11 | > 10 | – | COc1ccc(F)cc1C(C)(C)CC(O)(CNc1cc(C)cc2c1cnn2-c1ccccc1)C(F)(F)F (single isomer, unassigned) [Example 15-A, 1,1,1-Trifluoro-4-[5-fluoro-2-(methyloxy)phenyl]-4-methyl-2-{[(6-methyl-1-phenyl-1H-indazol-4-yl)amino]methyl}-2-pentanol]
